From paper PMC9404985, “Development of Dicationic Bisguanidine-Arylfuran Derivatives as Potent Agents against Gram-Negative Bacteria” (Antibiotics, 2022)
Like-named read-outs stand apart in the source and are kept apart here.

Experiments:
[1] = system: A. baumannii (CCUG #57035); experiment: Antibacterial activity against isolates (Omnilog, Biolog redox dye); type: cell-based, Acinetobacter baumannii; conditions: for EC50 / EC90: Acinetobacter baumannii, CCUG57035, ca-MH broth, 24 h, 37 °C; for Selectivity index A. baumannii (CCUG #57035): SI = ((EC50 MCF-7 + EC50 HepG2)/2)/EC50 bacterial strain
Description: (§1) The antibacterial activities of eight compounds (1, 3, 4, 6, 8, 10, 16, and 17) were tested against 10 different isolates of Gram-negative bacteria from human and other sources, two E. coli (CCUG #67180 and CCUG #17620/ATCC #25922, control strain), two K. pneumoniae (CCUG #58547 and CCUG #225T), two P. aeruginosa (CCUG #17619 and CCUG #59347), two A. baumannii (CCUG #57035 and CCUG #57250), E. cloacae (CCUG #6323T), and E. hormaechei (CCUG #58962) in a 96-well plate format. […] Bacterial mass from the ten isolates grown overnight on horse blood or Mueller–Hinton agar plates was suspended in ca-MH and adjusted to a final inoculum cell density of ~5 × 10^5 CFU/mL. For all assays, Biolog redox dye A diluted 100× from the stock solution was used for measurements of all ten isolates (up to a total volume of 120 µL per well). All plates included one well per isolate with only inoculum and dye but no test compound (i.e., positive control) and one well per isolate with inoculum, dye and DMSO diluted 1667×, corresponding to the DMSO concentration in the wells with the highest concentration of test compound. All measurements were performed using the Omnilog microplate reader (Biolog, Hayward, CA, USA) where the 96-well plates were read at 15 min intervals for a total of 24 h at 37 °C.

[2] = system: K. pneumoniae (CCUG #225T); experiment: as above; type: cell-based, Klebsiella pneumoniae; conditions: for EC50 / EC90: Klebsiella pneumoniae, ca-MH broth, 24 h, 37 °C; for Selectivity index K. pneumoniae (CCUG #225T): SI = ((EC50 MCF-7 + EC50 HepG2)/2)/EC50 bacterial strain
Description: (§2) The antibacterial activities of eight compounds (1, 3, 4, 6, 8, 10, 16, and 17) were tested against 10 different isolates of Gram-negative bacteria from human and other sources, two E. coli (CCUG #67180 and CCUG #17620/ATCC #25922, control strain), two K. pneumoniae (CCUG #58547 and CCUG #225T), two P. aeruginosa (CCUG #17619 and CCUG #59347), two A. baumannii (CCUG #57035 and CCUG #57250), E. cloacae (CCUG #6323T), and E. hormaechei (CCUG #58962) in a 96-well plate format. The compounds to test were 3-fold diluted in six steps in cation-adjusted Mueller-Hinton (ca-MH) broth to final concentrations spanning from 30 to 0.12 µM, i.e., a 1667–416,667 times dilution from the 50 mM stocks. Bacterial mass from the ten isolates grown overnight on horse blood or Mueller–Hinton agar plates was suspended in ca-MH and adjusted to a final inoculum cell density of ~5 × 10^5 CFU/mL. For all assays, Biolog redox dye A diluted 100× from the stock solution was used for measurements of all ten isolates (up to a total volume of 120 µL per well). All plates included one well per isolate with only inoculum and dye but no test compound (i.e., positive control) and one well per isolate with inoculum, dye and DMSO diluted 1667×, corresponding to the DMSO concentration in the wells with the highest concentration of test compound. All measurements were performed using the Omnilog microplate reader (Biolog, Hayward, CA, USA) where the 96-well plates were read at 15 min intervals for a total of 24 h at 37 °C.

[3] = system: P. putida (NBRC/ATCC #100650); experiment: Antibacterial resazurin assay, laboratory strain; conditions: for EC90: read-out: Ppu EC90; for Selectivity index P. putida: mean of MCF-7 and HepG2 EC50 over bacterial EC50, laboratory strain
[4] = system: E. coli (CCUG #17620/ ATCC #25922); experiment: Antibacterial activity against isolates (Omnilog, Biolog redox dye); type: cell-based, Escherichia coli; conditions: for EC50 / EC90: Escherichia coli, ca-MH broth, 24 h, 37 °C; for Selectivity index E. coli (CCUG #17620/ ATCC #25922): SI = ((EC50 MCF-7 + EC50 HepG2)/2)/EC50 bacterial strain
Description: as §2

E. coli (CCUG #67180) = experiment: as above; type: cell-based, Escherichia coli; conditions: for EC90 / EC50: Escherichia coli, ca-MH broth, 24 h, 37 °C; for EC90: CCUG67180, 24 h; for EC50: CCUG67180; for Selectivity index E. coli (CCUG #67180): SI = ((EC50 MCF-7 + EC50 HepG2)/2)/EC50 bacterial strain
Description: as §2

[5] = system: E. hormaechei (CCUG #58962); experiment: as above; type: cell-based, Enterobacter hormaechei; conditions: for EC50 / EC90: Enterobacter hormaechei, CCUG58962, ca-MH broth, 24 h, 37 °C; for Selectivity index E. hormaechei (CCUG #58962): SI = ((EC50 MCF-7 + EC50 HepG2)/2)/EC50 bacterial strain
Description: as §1

E. cloacae (CCUG #6323T) = experiment: as above; type: cell-based, Enterobacter cloacae; conditions: for EC50 / EC90: Enterobacter cloacae, ca-MH broth, 24 h, 37 °C; for Selectivity index E. cloacae (CCUG #6323T): SI = ((EC50 MCF-7 + EC50 HepG2)/2)/EC50 bacterial strain
Description: as §2

[6] = system: A. baumannii (CCUG #57250); experiment: as above; type: cell-based, Acinetobacter baumannii; conditions: for EC90 / EC50: ca-MH broth, 24 h, 37 °C; for EC50: CCUG57250; for Selectivity index A. baumannii (CCUG #57250): SI = ((EC50 MCF-7 + EC50 HepG2)/2)/EC50 bacterial strain
Description: as §2

[7] = Pseudomonas putida, ATCC100650, 18 h, read-out: Ppu EC50, laboratory strain, 18 h, 37 °C, AlamarBlue
[8] = Pseudomonas putida, ATCC100650, 18 h
[9] = Acinetobacter baumannii, CCUG57250, 24 h
[10] = read-out: Ppu EC50, laboratory strain, 18 h, 37 °C, AlamarBlue

| Compound | EC50 [1] | EC90 [1] | EC50 [2] | EC90 [2] | EC50 [3, 7] | EC90 [3, 8] | Selectivity index P. putida [3] | EC50 [4] | EC90 [4] | Selectivity index E. coli (CCUG #17620/ ATCC #25922) [4] | EC90 (E. coli (CCUG #67180)) | EC50 (E. coli (CCUG #67180)) | Selectivity index E. coli (CCUG #67180) (E. coli (CCUG #67180)) | EC50 [5] | EC90 [5] | EC50 (E. cloacae (CCUG #6323T)) | EC90 (E. cloacae (CCUG #6323T)) | Selectivity index E. cloacae (CCUG #6323T) (E. cloacae (CCUG #6323T)) | EC90 [6, 9] | EC50 ([6]; Acinetobacter baumannii) | other results |
| --- | --- | --- | --- | --- | --- | --- | --- | --- | --- | --- | --- | --- | --- | --- | --- | --- | --- | --- | --- | --- | --- |
| N=C(N)Nc1ccc(-c2ccc(C(=O)N3CCc4cc(NC(=N)N)ccc43)o2)cc1 [Compound 17, (5-(4-guanidinophenyl)furan-2-yl)(5-guanidinoindolin-1-yl)methanone] | 148 µM | > 200 µM | > 200 µM | > 200 µM | 73.9 µM | 98 µM | 2.6 | 16.4 µM | 24 µM | 11.8 | 19.9 µM | 14.2 µM | 13.7 | > 200 µM | > 200 µM | 5.6 µM | 8.6 µM | 34.8 | 90.3 µM | 61.8 µM | Selectivity index A. baumannii (CCUG #57035) [1]: 1.3; Selectivity index A. baumannii (CCUG #57250) [6]: 3.1 |
| N=C(N)Nc1ccc(-c2ccc(-c3ccc(NC(=N)N)cc3)o2)cc1 [Compound 3] | 1.6 µM | 2.4 µM | 2.8 µM | 3.1 µM | 8.3 µM | 14.3 µM | 15.0 | 1.6 µM | 2.2 µM | 76.6 | – | 5.3 µM | 23.7 | 7.6 µM | 9.1 µM | 1.5 µM | 2.5 µM | 83.1 | 2.4 µM | 1.7 µM | Selectivity index K. pneumoniae (CCUG #225T) [2]: 45.2; Selectivity index E. hormaechei (CCUG #58962) [5]: 16.4; EC90 [6]: 2.3 µM |
| Cc1cc(NC(=N)N)ccc1-c1ccc(-c2ccc(NC(=N)N)cc2C)o1 [Compound 4, 2,5-Bis(4-guanidino-2-methylphenyl)furan] | 16 µM | 23.5 µM | 15.3 µM | 22.7 µM | ~14.4 µM | 59.6 µM | 5.2 | 11.3 µM | 18.3 µM | 6.7 | 25.3 µM | 23.1 µM | 3.3 | 21.9 µM | 25.9 µM | 3.7 µM | 7.4 µM | 20.7 | 22.5 µM | 15.8 µM | Selectivity index A. baumannii (CCUG #57035) [1]: 4.7; Selectivity index K. pneumoniae (CCUG #225T) [2]: 4.9; EC50 [3, 10]: 14.5 µM; Selectivity index E. hormaechei (CCUG #58962) [5]: 3.4; Selectivity index A. baumannii (CCUG #57250) [6]: 4.8 |
| N=C(N)Nc1ccc(-c2ccc(C(=O)N3CCc4cc(NC(=N)N)ccc43)o2)c(Cl)c1 [Compound 16, (5-(2-chloro-4-guanidinophenyl)furan-2-yl)(5-guanidinoindolin-1-yl)methanone] | 16.5 µM | 24.4 µM | 9.8 µM | 12.2 µM | 94.2 µM | 147 µM | 2.2 | 13.6 µM | 19.7 µM | 15.4 | 27.1 µM | 23 µM | 9.1 | 12.7 µM | 14.7 µM | 3.5 µM | 7.9 µM | 60.1 | 12.5 µM | 12.5 µM | Selectivity index A. baumannii (CCUG #57035) [1]: 12.7; Selectivity index K. pneumoniae (CCUG #225T) [2]: 21.4; Selectivity index E. hormaechei (CCUG #58962) [5]: 16.4; Selectivity index A. baumannii (CCUG #57250) [6]: 16.7 |
| N=C(N)NCc1ccc(-c2ccc(-c3ccc(CNC(=N)N)cc3)o2)cc1 [Compound 10, 2,5-Bis(4-guanidinomethylphenyl)furan] | > 200 µM | > 200 µM | > 200 µM | > 200 µM | 25.6 µM | 36.7 µM | 3.6 | 151 µM | 179 µM | 0.6 | > 200 µM | 188 µM | 0.5 | > 200 µM | > 200 µM | 12.4 µM | 24.7 µM | 7.5 | > 200 µM | > 200 µM | – |
| COC(=O)c1cc(NC(=N)N)ccc1-c1ccc(-c2ccc(NC(=N)N)cc2C(=O)OC)o1 [Compound 8, 2,5-Bis(4-guanidino-2-(methylcarboxy)phenyl)furan] | 5.2 µM | 7 µM | 5.6 µM | 7.9 µM | 68.4 µM | 92.1 µM | 3.6 | 6 µM | 8.2 µM | 40.5 | 67.5 µM | 53.4 µM | 4.6 | 8.3 µM | 8.7 µM | 4.8 µM | 7.1 µM | 50.8 | 5.1 µM | 4.4 µM | Selectivity index A. baumannii (CCUG #57035) [1]: 47.2; Selectivity index K. pneumoniae (CCUG #225T) [2]: 43.3; Selectivity index E. hormaechei (CCUG #58962) [5]: 29.4; Selectivity index A. baumannii (CCUG #57250) [6]: 55.3 |
| COc1cc(NC(=N)N)ccc1-c1ccc(-c2ccc(NC(=N)N)cc2OC)o1 [Compound 6, 2,5-Bis(4-guanidino-2-methoxyphenyl)furan] | 6.8 µM | 11 µM | 10.3 µM | 12.7 µM | ~14.4 µM | 19.7 µM | 10.1 | 6.2 µM | 7.5 µM | 23.1 | 74.4 µM | 63.4 µM | 2.3 | 15.9 µM | 22.9 µM | 5.3 µM | 8.4 µM | 27.4 | 8.8 µM | 7.6 µM | Selectivity index A. baumannii (CCUG #57035) [1]: 21.3; Selectivity index K. pneumoniae (CCUG #225T) [2]: 14.0; EC50 [3, 10]: 14.3 µM; Selectivity index E. hormaechei (CCUG #58962) [5]: 9.0; Selectivity index A. baumannii (CCUG #57250) [6]: 19.0 |
